Test results from ChEMBL document CHEMBL3991601, “The target landscape of clinical kinase drugs” (Science, 2017).
Counter-ions that a name gives are not always drawn. The source made the active and inactive calls. For most assays here, no stated cut-off is given here; in the data, actives have a measured Kd and inactives only a lower limit.

What was measured:
[1] = target: T1, Bone morphogenetic protein receptor type-2 (Homo sapiens, UniProt Q13873)
T1 sequence (Q13873 whole entry): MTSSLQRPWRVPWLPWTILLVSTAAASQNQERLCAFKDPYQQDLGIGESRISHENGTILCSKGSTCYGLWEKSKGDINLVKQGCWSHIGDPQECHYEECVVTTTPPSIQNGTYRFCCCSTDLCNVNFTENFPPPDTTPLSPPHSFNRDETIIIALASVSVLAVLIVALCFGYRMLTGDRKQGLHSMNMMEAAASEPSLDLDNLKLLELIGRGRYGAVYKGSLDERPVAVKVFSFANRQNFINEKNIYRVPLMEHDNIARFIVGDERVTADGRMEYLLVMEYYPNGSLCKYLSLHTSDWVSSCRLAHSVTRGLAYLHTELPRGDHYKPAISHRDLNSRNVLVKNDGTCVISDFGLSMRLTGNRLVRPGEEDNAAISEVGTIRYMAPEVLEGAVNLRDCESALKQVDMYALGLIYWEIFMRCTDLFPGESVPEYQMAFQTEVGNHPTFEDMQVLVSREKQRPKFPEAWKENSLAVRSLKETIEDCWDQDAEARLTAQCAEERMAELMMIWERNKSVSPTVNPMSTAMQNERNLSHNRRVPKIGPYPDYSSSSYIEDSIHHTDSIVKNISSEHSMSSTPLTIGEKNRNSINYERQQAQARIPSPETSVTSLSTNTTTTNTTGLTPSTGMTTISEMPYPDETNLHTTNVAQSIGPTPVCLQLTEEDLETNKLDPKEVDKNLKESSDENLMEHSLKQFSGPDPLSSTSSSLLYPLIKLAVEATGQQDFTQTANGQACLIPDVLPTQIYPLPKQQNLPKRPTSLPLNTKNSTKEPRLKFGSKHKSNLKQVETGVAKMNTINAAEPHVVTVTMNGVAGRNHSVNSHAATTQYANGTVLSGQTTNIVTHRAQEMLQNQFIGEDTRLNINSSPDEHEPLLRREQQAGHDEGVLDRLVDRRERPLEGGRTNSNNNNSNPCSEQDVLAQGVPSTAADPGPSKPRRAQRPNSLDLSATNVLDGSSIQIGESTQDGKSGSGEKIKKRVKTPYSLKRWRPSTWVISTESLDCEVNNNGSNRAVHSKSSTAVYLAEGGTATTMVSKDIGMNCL

[2] = target: T2, Scaffold protein ILK (Homo sapiens, UniProt Q13418)
T2 sequence (Q13418 whole entry): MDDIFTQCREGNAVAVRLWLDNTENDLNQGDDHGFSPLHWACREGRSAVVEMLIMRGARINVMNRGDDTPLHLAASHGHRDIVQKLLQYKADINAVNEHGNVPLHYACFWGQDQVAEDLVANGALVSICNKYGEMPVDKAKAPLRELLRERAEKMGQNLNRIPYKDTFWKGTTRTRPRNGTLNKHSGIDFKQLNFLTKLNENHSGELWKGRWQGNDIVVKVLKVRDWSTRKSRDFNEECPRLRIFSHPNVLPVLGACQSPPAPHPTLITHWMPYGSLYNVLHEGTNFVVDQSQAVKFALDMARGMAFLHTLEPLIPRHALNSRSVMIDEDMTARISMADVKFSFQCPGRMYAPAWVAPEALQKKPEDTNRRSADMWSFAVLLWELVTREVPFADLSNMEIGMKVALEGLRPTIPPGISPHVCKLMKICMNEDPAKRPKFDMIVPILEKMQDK

[3] = target: High affinity nerve growth factor receptor (Homo sapiens, UniProt P04629)
High affinity nerve growth factor receptor, sequence (P04629 whole entry): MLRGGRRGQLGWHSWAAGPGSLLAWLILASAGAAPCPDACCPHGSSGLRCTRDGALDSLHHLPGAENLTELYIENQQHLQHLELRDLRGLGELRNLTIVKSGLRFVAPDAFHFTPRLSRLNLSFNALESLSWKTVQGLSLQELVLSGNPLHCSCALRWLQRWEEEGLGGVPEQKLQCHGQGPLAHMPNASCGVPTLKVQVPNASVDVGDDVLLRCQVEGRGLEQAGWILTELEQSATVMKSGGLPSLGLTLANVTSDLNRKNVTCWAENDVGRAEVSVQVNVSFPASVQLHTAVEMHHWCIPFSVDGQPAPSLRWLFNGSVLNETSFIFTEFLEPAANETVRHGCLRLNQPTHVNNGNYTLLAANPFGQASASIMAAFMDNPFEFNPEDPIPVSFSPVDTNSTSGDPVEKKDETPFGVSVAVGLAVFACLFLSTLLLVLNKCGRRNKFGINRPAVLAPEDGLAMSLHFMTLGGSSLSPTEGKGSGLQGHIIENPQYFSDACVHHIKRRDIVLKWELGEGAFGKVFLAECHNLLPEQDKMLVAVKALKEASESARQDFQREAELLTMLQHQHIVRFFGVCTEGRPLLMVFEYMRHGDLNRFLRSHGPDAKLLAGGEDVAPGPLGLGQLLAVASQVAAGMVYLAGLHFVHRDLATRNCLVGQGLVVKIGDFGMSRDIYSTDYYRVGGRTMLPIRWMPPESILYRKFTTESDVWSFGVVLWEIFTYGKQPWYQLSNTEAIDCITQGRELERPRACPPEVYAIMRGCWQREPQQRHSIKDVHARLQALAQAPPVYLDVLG

[4] = target: T3, Serine/threonine-protein kinase 3 (Homo sapiens, UniProt Q13188)
T3 sequence (Q13188 whole entry): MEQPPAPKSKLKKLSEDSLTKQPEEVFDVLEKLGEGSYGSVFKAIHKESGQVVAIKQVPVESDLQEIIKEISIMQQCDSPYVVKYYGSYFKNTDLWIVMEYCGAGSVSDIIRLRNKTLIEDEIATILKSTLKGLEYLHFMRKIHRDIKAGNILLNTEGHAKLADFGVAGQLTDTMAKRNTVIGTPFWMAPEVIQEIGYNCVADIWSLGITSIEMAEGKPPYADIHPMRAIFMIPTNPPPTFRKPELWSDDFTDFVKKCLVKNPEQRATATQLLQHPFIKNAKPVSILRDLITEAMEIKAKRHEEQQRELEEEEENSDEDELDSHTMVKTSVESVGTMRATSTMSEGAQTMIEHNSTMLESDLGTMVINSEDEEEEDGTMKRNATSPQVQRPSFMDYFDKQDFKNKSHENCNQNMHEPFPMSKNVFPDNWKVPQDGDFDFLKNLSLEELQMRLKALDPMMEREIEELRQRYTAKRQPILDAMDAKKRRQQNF

[5] = target: Dual specificity testis-specific protein kinase 1 (Homo sapiens, UniProt Q15569)
Dual specificity testis-specific protein kinase 1, sequence (Q15569 whole entry): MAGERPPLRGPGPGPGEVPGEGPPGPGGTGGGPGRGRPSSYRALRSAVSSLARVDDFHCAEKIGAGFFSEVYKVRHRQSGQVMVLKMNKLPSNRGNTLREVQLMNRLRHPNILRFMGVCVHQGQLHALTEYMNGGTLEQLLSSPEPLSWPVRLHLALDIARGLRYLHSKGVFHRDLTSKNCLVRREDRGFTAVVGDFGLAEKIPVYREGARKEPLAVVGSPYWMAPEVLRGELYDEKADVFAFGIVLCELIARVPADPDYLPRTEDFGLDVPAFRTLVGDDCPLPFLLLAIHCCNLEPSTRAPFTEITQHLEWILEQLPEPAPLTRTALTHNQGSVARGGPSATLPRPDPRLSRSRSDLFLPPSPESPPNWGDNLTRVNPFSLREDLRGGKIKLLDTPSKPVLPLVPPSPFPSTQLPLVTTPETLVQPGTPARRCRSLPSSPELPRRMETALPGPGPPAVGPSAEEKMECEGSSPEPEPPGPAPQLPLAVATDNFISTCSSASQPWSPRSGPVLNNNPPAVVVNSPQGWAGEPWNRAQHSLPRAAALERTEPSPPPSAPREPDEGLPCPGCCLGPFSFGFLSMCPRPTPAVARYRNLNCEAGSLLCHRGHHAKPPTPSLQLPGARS

[6] = target: Tyrosine-protein kinase Fer (Homo sapiens, UniProt P16591)
Tyrosine-protein kinase Fer, sequence (P16591 whole entry): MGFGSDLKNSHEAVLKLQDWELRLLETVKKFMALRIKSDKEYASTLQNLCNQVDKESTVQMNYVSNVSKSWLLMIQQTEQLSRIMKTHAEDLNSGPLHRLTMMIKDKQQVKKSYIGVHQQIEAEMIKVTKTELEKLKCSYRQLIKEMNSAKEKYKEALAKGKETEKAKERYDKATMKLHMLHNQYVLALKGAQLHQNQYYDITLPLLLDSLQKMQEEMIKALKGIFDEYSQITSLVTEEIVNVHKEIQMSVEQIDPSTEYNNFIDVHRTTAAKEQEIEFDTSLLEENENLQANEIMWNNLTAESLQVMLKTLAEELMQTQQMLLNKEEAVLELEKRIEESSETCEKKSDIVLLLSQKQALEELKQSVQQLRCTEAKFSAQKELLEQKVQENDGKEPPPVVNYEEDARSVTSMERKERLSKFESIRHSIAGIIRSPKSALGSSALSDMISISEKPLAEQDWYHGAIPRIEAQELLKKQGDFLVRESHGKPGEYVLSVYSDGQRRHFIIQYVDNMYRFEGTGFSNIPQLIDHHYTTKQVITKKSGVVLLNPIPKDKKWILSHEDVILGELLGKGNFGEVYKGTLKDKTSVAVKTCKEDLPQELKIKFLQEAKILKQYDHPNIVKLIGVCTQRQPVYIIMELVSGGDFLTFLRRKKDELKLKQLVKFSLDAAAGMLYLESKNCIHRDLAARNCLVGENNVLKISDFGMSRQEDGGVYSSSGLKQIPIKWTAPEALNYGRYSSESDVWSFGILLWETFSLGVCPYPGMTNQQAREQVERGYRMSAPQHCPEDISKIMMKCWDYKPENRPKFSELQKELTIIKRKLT

[7] = target: T4, Serine/threonine-protein kinase Chk1 (Homo sapiens, UniProt O14757)
T4 sequence (O14757 whole entry): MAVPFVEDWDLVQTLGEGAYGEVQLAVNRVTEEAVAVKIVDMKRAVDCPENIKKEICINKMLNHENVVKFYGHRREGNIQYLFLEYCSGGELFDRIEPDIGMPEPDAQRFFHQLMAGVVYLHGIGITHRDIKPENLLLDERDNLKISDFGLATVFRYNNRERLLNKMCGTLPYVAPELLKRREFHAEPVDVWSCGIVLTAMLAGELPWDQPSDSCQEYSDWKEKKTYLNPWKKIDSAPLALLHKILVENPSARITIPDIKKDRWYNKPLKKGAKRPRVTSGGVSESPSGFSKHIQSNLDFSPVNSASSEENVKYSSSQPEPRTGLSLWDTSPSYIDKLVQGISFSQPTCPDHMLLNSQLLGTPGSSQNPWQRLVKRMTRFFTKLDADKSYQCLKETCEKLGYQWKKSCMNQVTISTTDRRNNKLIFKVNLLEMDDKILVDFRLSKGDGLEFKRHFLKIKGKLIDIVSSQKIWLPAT

[8] = target: T5, Ribosyldihydronicotinamide dehydrogenase [quinone] (Homo sapiens, UniProt P16083)
T5 sequence (P16083 whole entry): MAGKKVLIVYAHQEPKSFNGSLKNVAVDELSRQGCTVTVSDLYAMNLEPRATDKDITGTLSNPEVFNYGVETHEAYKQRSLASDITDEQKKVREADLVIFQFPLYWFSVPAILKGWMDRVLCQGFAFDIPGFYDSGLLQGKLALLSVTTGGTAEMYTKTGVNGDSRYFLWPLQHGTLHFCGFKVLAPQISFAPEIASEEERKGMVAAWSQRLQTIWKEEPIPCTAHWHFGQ

[9] = target: Elongation factor Tu, mitochondrial (Homo sapiens, UniProt P49411)

SMILES	Kd [1]	Kd [2]	Kd [3]	Kd [4]	Kd [5]	Kd [6]	Kd [7]	Kd [8]	Kd [9]
C[C@H]1CNCCCN1S(=O)(=O)c1cccc2cncc(F)c12	> 30 µM (inactive)	> 30 µM (inactive)	> 30 µM (inactive)	> 30 µM (inactive)	> 30 µM (inactive)	> 30 µM (inactive)	> 30 µM (inactive)	3.7 µM (active)	> 30 µM (inactive)
C=CC(=O)N1CCC[C@H](n2c(=O)n(-c3ccc(Oc4ccccc4)cc3)c3c(N)ncnc32)C1	> 30 µM (inactive)	> 30 µM (inactive)	> 30 µM (inactive)	> 30 µM (inactive)	> 30 µM (inactive)	> 30 µM (inactive)	> 30 µM (inactive)	> 30 µM (inactive)	> 30 µM (inactive)
Cc1nc2cc(-c3nn(C(C)C)c4ncnc(N)c34)ccc2o1	> 30 µM (inactive)	> 30 µM (inactive)	> 30 µM (inactive)	> 30 µM (inactive)	> 30 µM (inactive)	> 30 µM (inactive)	> 30 µM (inactive)	> 30 µM (inactive)	> 30 µM (inactive)
COCc1c(-c2ccc(NC(=O)Nc3cc(C(F)(F)F)ccc3F)c(F)c2)c2c(N)ncnn2c1CN1CCOCC1	> 30 µM (inactive)	> 30 µM (inactive)	> 30 µM (inactive)	> 30 µM (inactive)	> 30 µM (inactive)	> 30 µM (inactive)	> 30 µM (inactive)	> 30 µM (inactive)	> 30 µM (inactive)
C=CC(=O)Nc1cc2c(Nc3ccc(F)c(Cl)c3)ncnc2cc1C#CC(C)(C)N1CCN(C)CC1 [AV-412 FREE BASE]	> 30 µM (inactive)	> 30 µM (inactive)	> 30 µM (inactive)	> 30 µM (inactive)	> 30 µM (inactive)	> 30 µM (inactive)	> 30 µM (inactive)	> 30 µM (inactive)	> 30 µM (inactive)
COc1cc([C@@H]2c3cc4c(cc3[C@H](O)[C@H]3COC(=O)[C@@H]23)OCO4)cc(OC)c1OC [AXL-1717]	> 30 µM (inactive)	> 30 µM (inactive)	> 30 µM (inactive)	> 30 µM (inactive)	> 30 µM (inactive)	> 30 µM (inactive)	> 30 µM (inactive)	> 30 µM (inactive)	> 30 µM (inactive)
Cn1cnc2c(F)c(Nc3ccc(Br)cc3F)c(C(=O)NOCCO)cc21 [BINIMETINIB]	> 30 µM (inactive)	> 30 µM (inactive)	> 30 µM (inactive)	> 30 µM (inactive)	> 30 µM (inactive)	> 30 µM (inactive)	> 30 µM (inactive)	14.7 µM (active)	> 30 µM (inactive)
Cc1cc(Nc2ncc(Cl)c(Nc3ccccc3S(=O)(=O)C(C)C)n2)c(OC(C)C)cc1C1CCNCC1 [CERITINIB]	> 30 µM (inactive)	> 30 µM (inactive)	> 30 µM (inactive)	> 30 µM (inactive)	> 30 µM (inactive)	0.214 µM (active)	> 30 µM (inactive)	> 30 µM (inactive)	> 30 µM (inactive)
COc1c(OCCCN2CCOCC2)ccc2c1N=C(NC(=O)c1cnc(N)nc1)N1CCN=C21 [COPANLISIB]	> 30 µM (inactive)	> 30 µM (inactive)	> 30 µM (inactive)	> 30 µM (inactive)	> 30 µM (inactive)	> 30 µM (inactive)	> 30 µM (inactive)	> 30 µM (inactive)	> 30 µM (inactive)
CCS(=O)(=O)N1CCN(c2ccc(Nc3ncc(C(N)=O)c(NC4CC4)n3)cc2)CC1 [Cerdulatinib Hydrochloride]	4.86 µM (active)	> 30 µM (inactive)	> 30 µM (inactive)	0.062 µM (active)	> 30 µM (inactive)	> 30 µM (inactive)	0.701 µM (active)	> 30 µM (inactive)	> 30 µM (inactive)
Cc1nc2cc(-n3ncc(C(=O)c4cc5ccccc5[nH]4)c3N)ccc2[nH]1 [FGFR INHIBITOR DEBIO 1347]	> 30 µM (inactive)	> 30 µM (inactive)	> 30 µM (inactive)	> 30 µM (inactive)	> 30 µM (inactive)	> 30 µM (inactive)	> 30 µM (inactive)	> 30 µM (inactive)	> 30 µM (inactive)
O=C(Nc1nc2cccc(-c3ccc(CN4CCS(=O)(=O)CC4)cc3)n2n1)C1CC1 [FILGOTINIB]	> 30 µM (inactive)	> 30 µM (inactive)	> 30 µM (inactive)	> 30 µM (inactive)	> 30 µM (inactive)	> 30 µM (inactive)	> 30 µM (inactive)	> 30 µM (inactive)	> 30 µM (inactive)

Next, values leading:

Kd [1]	Kd [2]	Kd [3]	Kd [4]	Kd [5]	Kd [6]	Kd [7]	Kd [8]	Kd [9]	SMILES
> 30 µM (inactive)	> 30 µM (inactive)	> 30 µM (inactive)	> 30 µM (inactive)	> 30 µM (inactive)	0.98 µM (active)	> 30 µM (inactive)	> 30 µM (inactive)	> 30 µM (inactive)	COc1cc2ncnc(Oc3cccc(NC(=O)Nc4cc(C(C)(C)C(F)(F)F)on4)c3)c2cc1OC [CEP-32496]
> 30 µM (inactive)	> 30 µM (inactive)	> 30 µM (inactive)	> 30 µM (inactive)	> 30 µM (inactive)	> 30 µM (inactive)	> 30 µM (inactive)	> 30 µM (inactive)	> 30 µM (inactive)	COCC(=O)NC/C=C/c1ccc2ncnc(Nc3ccc(Oc4ccc(C)nc4)c(C)c3)c2c1 [CP-724714]
> 30 µM (inactive)	> 30 µM (inactive)	> 30 µM (inactive)	> 30 µM (inactive)	> 30 µM (inactive)	> 30 µM (inactive)	> 30 µM (inactive)	> 30 µM (inactive)	> 30 µM (inactive)	C#Cc1cccc(Nc2ncnc3cc(OC)c(OCCCCCCC(=O)NO)cc23)c1 [CUDC-101]
